Tested on: 276233-004-R-J1-PDC KRAS spheroids with HUVEC/MSC, viability
Test: Anticancer human tumor 276233-004-R-J1-PDC patient-derived colon adenocarcinoma cell line growth inhibition [KRAS2]
Conditions: for IC50: curve of first compound; for viability, T/C: stronger effect = lower value
In short: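 KRAS-mutant tumor cells were grown as spheroids with HUVEC endothelial cells and human MSCs as stroma. Targeted agents were tested alone and with KRAS pathway inhibitors. Doses started at or near clinical Cmax, or 10 microM, descending half-log.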

[1] = second compound 0.1 µM, first compound 0.0316 µM
[2] = second compound 0.1 µM, first compound 0.1 µM
[3] = second compound 0.1 µM, first compound 0.316 µM
[4] = second compound 0.1 µM, first compound 1 µM
[5] = second compound 0.1 µM, first compound 3.16 µM
[6] = second compound 0.1 µM, first compound 10 µM
[7] = second compound 0.316 µM, first compound 0.0316 µM
[8] = second compound 0.316 µM, first compound 0.1 µM
[9] = second compound 0.316 µM, first compound 0.316 µM
[10] = second compound 0.316 µM, first compound 1 µM
[11] = second compound 0.316 µM, first compound 3.16 µM
[12] = second compound 0.316 µM, first compound 10 µM
[13] = second compound 1 µM, first compound 0.0316 µM
[14] = second compound 1 µM, first compound 0.1 µM
[15] = second compound 1 µM, first compound 0.316 µM
[16] = second compound 1 µM, first compound 1 µM
[17] = second compound 1 µM, first compound 3.16 µM
[18] = second compound 1 µM, first compound 10 µM
[19] = second compound 3.16 µM, first compound 0.0316 µM
[20] = second compound 3.16 µM, first compound 0.1 µM
[21] = second compound 3.16 µM, first compound 0.316 µM
[22] = second compound 3.16 µM, first compound 1 µM
[23] = second compound 3.16 µM, first compound 3.16 µM
[24] = second compound 3.16 µM, first compound 10 µM
[25] = second compound 10 µM, first compound 0.0316 µM
[26] = second compound 10 µM, first compound 0.1 µM
[27] = second compound 10 µM, first compound 0.316 µM
[28] = second compound 10 µM, first compound 1 µM
[29] = second compound 10 µM, first compound 3.16 µM
[30] = second compound 10 µM, first compound 10 µM
[31] = second compound 0.1 µM, first compound 0.000316 µM
[32] = second compound 0.1 µM, first compound 0.001 µM
[33] = second compound 0.1 µM, first compound 0.00316 µM
[34] = second compound 0.1 µM, first compound 0.01 µM
[35] = second compound 0.316 µM, first compound 0.000316 µM
[36] = second compound 0.316 µM, first compound 0.001 µM
[37] = second compound 0.316 µM, first compound 0.00316 µM
[38] = second compound 0.316 µM, first compound 0.01 µM
[39] = second compound 1 µM, first compound 0.000316 µM
[40] = second compound 1 µM, first compound 0.001 µM
[41] = second compound 1 µM, first compound 0.00316 µM
[42] = second compound 1 µM, first compound 0.01 µM
[43] = second compound 3.16 µM, first compound 0.000316 µM
[44] = second compound 3.16 µM, first compound 0.001 µM
[45] = second compound 3.16 µM, first compound 0.00316 µM
[46] = second compound 3.16 µM, first compound 0.01 µM
[47] = second compound 10 µM, first compound 0.000316 µM
[48] = second compound 10 µM, first compound 0.001 µM
[49] = second compound 10 µM, first compound 0.00316 µM
[50] = second compound 10 µM, first compound 0.01 µM
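Note: cells exposed to agents for seven days before viability read.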
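Throughout, for viability, T/C: 100% = DMSO vehicle control wells and lower values mean fewer viable cells.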

SMILES	IC50 (second compound 0.1 µM) [µM]	IC50 (second compound 0.316 µM) [µM]	IC50 (second compound 1 µM) [µM]	IC50 (second compound 3.16 µM) [µM]	IC50 (second compound 10 µM) [µM]	viability, T/C [1] [%]	viability, T/C [2] [%]	viability, T/C [3] [%]	viability, T/C [4] [%]	viability, T/C [5] [%]	viability, T/C [6] [%]	viability, T/C [7] [%]	viability, T/C [8] [%]	viability, T/C [9] [%]	viability, T/C [13] [%]	viability, T/C [14] [%]	viability, T/C [19] [%]	viability, T/C [20] [%]	viability, T/C [25] [%]	viability, T/C [26] [%]	further results
COC(=O)c1ccc2c(C(=Nc3ccc(N(C)C(=O)CN4CCN(C)CC4)cc3)c3ccccc3)c(O)[nH]c2c1 + C=CC(=O)N1CCN(c2nc(=O)n(-c3c(C)ccnc3C(C)C)c3nc(-c4c(O)cccc4F)c(F)cc23)C(C)C1	> 10	> 10	> 10	> 10	3.36	104	72.4	71.5	92.8	91.8	97.2	105	80.5	90	106	87.5	93.9	78.1	78.2	73.2	viability, T/C [10]: 83%; viability, T/C [11]: 91.1%; viability, T/C [12]: 92.3%; viability, T/C [15]: 64.8%; viability, T/C [16]: 96.7%; viability, T/C [17]: 96%; viability, T/C [18]: 88.3%; viability, T/C [21]: 81.1%; viability, T/C [22]: 63.3%; viability, T/C [23]: 89.5%; viability, T/C [24]: 95.5%; viability, T/C [27]: 61.2%; viability, T/C [28]: 82.2%; viability, T/C [29]: 51.8%; viability, T/C [30]: 16.8%
COc1cc2nccc(Oc3ccc(NC(=O)C4(C(=O)Nc5ccc(F)cc5)CC4)cc3)c2cc1OC + C=CC(=O)N1CCN(c2nc(OCC3CCCN3C)nc3c2CCN(c2cccc4cccc(C)c24)C3)CC1CC#N	> 10	> 10	> 10	1.68	–	93.5	116	82.5	94.2	74.8	70.6	76.2	79.5	86	71.5	74.5	52.1	63.4	–	–	IC50 (second compound 0.0316 µM): > 10 µM; viability, T/C (second compound 0.0316 µM, first compound 0.0316 µM): 80%; viability, T/C (second compound 0.0316 µM, first compound 0.1 µM): 89.7%; viability, T/C (second compound 0.0316 µM, first compound 0.316 µM): 91%; viability, T/C (second compound 0.0316 µM, first compound 1 µM): 78.9%; viability, T/C (second compound 0.0316 µM, first compound 3.16 µM): 87.6%; viability, T/C (second compound 0.0316 µM, first compound 10 µM): 90.6%; viability, T/C [10]: 84.6%; viability, T/C [11]: 84.7%; viability, T/C [12]: 91.2%; viability, T/C [15]: 67.1%; viability, T/C [16]: 72%; viability, T/C [17]: 80.1%; viability, T/C [18]: 75.7%; viability, T/C [21]: 65%; viability, T/C [22]: 76.7%; viability, T/C [23]: 32.6%; viability, T/C [24]: 3.91%
Cn1ncnc1[C@H]1c2n[nH]c(=O)c3cc(F)cc(c23)N[C@@H]1c1ccc(F)cc1 + CC1OCC2(CCN(c3cnc(Sc4ccnc(N)c4Cl)c(N)n3)CC2)C1N	> 0.1	> 0.1	> 0.1	> 0.1	> 0.1	94.3	85.1	–	–	–	–	74.9	89.6	–	69.4	65.6	59.5	62.9	54.2	54	viability, T/C [31]: 95.8%; viability, T/C [32]: 99.4%; viability, T/C [33]: 102%; viability, T/C [34]: 99%; viability, T/C [35]: 92.5%; viability, T/C [36]: 83.5%; viability, T/C [37]: 98.1%; viability, T/C [38]: 88.3%; viability, T/C [39]: 88.9%; viability, T/C [40]: 95.2%; viability, T/C [41]: 104%; viability, T/C [42]: 82.6%; viability, T/C [43]: 83.8%; viability, T/C [44]: 70.1%; viability, T/C [45]: 68.8%; viability, T/C [46]: 52.8%; viability, T/C [47]: 68.8%; viability, T/C [48]: 66.4%; viability, T/C [49]: 64.9%; viability, T/C [50]: 64.5%
CC(C)NCC(C(=O)N1CCN(c2ncnc3c2C(C)CC3O)CC1)c1ccc(Cl)cc1 (stereo not given) + CNCc1ccccc1-c1csc(C(C)Nc2nc(C)nc3cc(OC)c(OC)cc23)c1	> 10	> 10	0.563	< 0.0316	< 0.0316	77.2	69.9	79.5	78.8	66	53.6	88.3	96.1	76.4	66.9	50.1	0.57	0.54	0.2	0.22	viability, T/C [10]: 70.6%; viability, T/C [11]: 70.4%; viability, T/C [12]: 58.6%; viability, T/C [15]: 78.5%; viability, T/C [16]: 34.9%; viability, T/C [17]: 23.9%; viability, T/C [18]: 38.2%; viability, T/C [21]: 0.43%; viability, T/C [22]: 0.58%; viability, T/C [23]: 0.56%; viability, T/C [24]: 0.49%; viability, T/C [27]: 0.18%; viability, T/C [28]: 0.2%; viability, T/C [29]: 1.04%; viability, T/C [30]: 0.31%
Cn1ncnc1[C@H]1c2n[nH]c(=O)c3cc(F)cc(c23)N[C@@H]1c1ccc(F)cc1 + C=CC(=O)N1CCN(c2nc(=O)n(-c3c(C)ccnc3C(C)C)c3nc(-c4c(O)cccc4F)c(F)cc23)C(C)C1	> 0.1	> 0.1	> 0.1	> 0.1	> 0.1	95.1	91.7	–	–	–	–	94.4	92	–	95.5	94.9	97.8	133	83.4	88.4	viability, T/C [31]: 89.7%; viability, T/C [32]: 98%; viability, T/C [33]: 94.8%; viability, T/C [34]: 99.5%; viability, T/C [35]: 99.6%; viability, T/C [36]: 111%; viability, T/C [37]: 101%; viability, T/C [38]: 100%; viability, T/C [39]: 98.6%; viability, T/C [40]: 121%; viability, T/C [41]: 138%; viability, T/C [42]: 93.9%; viability, T/C [43]: 98.4%; viability, T/C [44]: 116%; viability, T/C [45]: 117%; viability, T/C [46]: 92.5%; viability, T/C [47]: 88.2%; viability, T/C [48]: 91.3%; viability, T/C [49]: 114%; viability, T/C [50]: 85.7%
CC1(C)CCC(CN2CCN(c3ccc(C(=O)NS(=O)(=O)c4ccc(NCC5CCOCC5)c([N+](=O)[O-])c4)c(Oc4cnc5[nH]ccc5c4)c3)CC2)=C(c2ccc(Cl)cc2)C1 + CC1OCC2(CCN(c3cnc(Sc4ccnc(N)c4Cl)c(N)n3)CC2)C1N	> 10	5.97	3.18	2.57	3.2	78.6	91.9	72.4	116	74.8	54.9	89.7	77.9	89.2	67.3	75	69.1	62.6	60.1	72	viability, T/C [10]: 81%; viability, T/C [11]: 63.7%; viability, T/C [12]: 39%; viability, T/C [15]: 85.7%; viability, T/C [16]: 62.3%; viability, T/C [17]: 51.6%; viability, T/C [18]: 27.2%; viability, T/C [21]: 77.5%; viability, T/C [22]: 81.1%; viability, T/C [23]: 45%; viability, T/C [24]: 24.8%; viability, T/C [27]: 65.8%; viability, T/C [28]: 72.7%; viability, T/C [29]: 50.4%; viability, T/C [30]: 14.4%
